Results: patent US10059996B2, “Susceptibility to and stratification for monoaminergic antidepressants” (priority 2012, dated 2018)
“Also recorded” adds a separate entry of the source. Counter-ions that a name gives are not always drawn.

Tests used:
[1] = test system: BDNF-gene exon-IV promoter construct; assay: Luciferase-based reporter gene assay with BDNF-gene exon-IV promoter construct in SH-SY5Y cells; assay type: cell-based, human; details: 48 h incubation, fluoxetine 3, 5, 10 μM or venlafaxine 10, 30, 50 μM; for change of luciferase reporter gene activity (luminescence), methylated construct: Sss1-methylated BDNF-gene exon-IV promoter in pGL4.14, SH-SY5Y; for change of luciferase reporter gene activity (luminescence), unmethylated construct: unmethylated BDNF-gene exon-IV promoter in pGL4.14, SH-SY5Y, hydrochloride
SH-Sy5Y cells = assay: CellTiter-Glo Luminescent Cell Viability Assay (cytotoxic concentrations); details: 10 μM, 30 μM, 50 μM Venlafaxine
Method: Cells were maintained at 37° C. in a humidified atmosphere of 5% CO2 in atmosphere. To determine cytotoxic concentrations of fluoxetine and venlafaxine by CellTiter-Glo Luminescent Cell Viability Assay (Promega, Madison, Wis.) 1.5×10^5 cells were plated in 96 well plates and grown for 24 hours. Three wells at a time were incubated with different amounts of fluoxetine hydrochloride or venlafaxine hydrochloride (both Sigma-Aldrich Germany, Taufkirchen), both solved in sterile deionized water at 4 mg/mL. […] After incubation for 24 hours cytotoxicity was documented by microscope photography and measured using a GloMax Multi+ Detection System (Promega, Madison, Wis.).

Structure (SMILES)	change of luciferase reporter gene activity (luminescence), methylated construct [1]	change of luciferase reporter gene activity (luminescence), unmethylated construct [1]	cytotoxicity at the concentrations used (SH-Sy5Y cells)
COc1ccc(C(CN(C)C)C2(O)CCCCC2)cc1 (centres unmarked) [venlafaxine, venlafaxine hydrochloride]	did not change expression levels	decrease of reporter gene activity; also recorded: significant decrease of luciferase expression	non-toxic
CNCCC(Oc1ccc(C(F)(F)F)cc1)c1ccccc1 (centres unmarked) [fluoxetine, fluoxetine hydrochloride]	did not change expression levels	decrease of reporter gene activity; also recorded: significant decrease of luciferase expression	–
